We go through five compounds from article PMC5473904, “Epigenetic and antitumor effects of platinum(IV)-octanoato conjugates” (Scientific Reports, 2017).

Data set [1] deals with Lewis lung carcinoma (LLC). The data set can be described thus: In vivo antitumor activity in Lewis lung carcinoma. Particulars: LLC in C57BL mice; for Average tumor weight (mean ± SD): 20 mg kg^−1 daily orally day 7–14, day 15; for Inhibition of tumor growth: 20 mg kg^−1 daily orally day 7–14, day 15, referred to control animals. Here is the method: Xenograft LLC tumors were grown in C57BL mice that were subsequently treated with […] of either Pt(IV) complex. Pt(IV) prodrugs were administered by oral gavage by taking advantage of their excellent stability, enabling in vivo oral formulation making platinum therapy safer lessening side effects and partially overcoming resistance to platinum(II) drugs, [35]. The schedule of Pt(IV) prodrug administration in vivo was initially determined by assessing the total dose that could be injected without undue toxicity in nontumor-bearing C57BL mice. From day 7 after tumor inoculation, when tumors became visible, tumor-bearing mice received daily doses of the Pt(IV) derivatives (20 mg kg^−1, by oral gavage).
The LLC cell line was purchased from ECACC, United Kingdom. The LLC cell line was maintained in DMEM (Euroclone) supplemented with 10% heat-inactivated fetal bovine serum (FBS; Euroclone), 10 mM L-glutamine, 100 U mL^−1 penicillin, and 100 μg mL^−1 streptomycin in a 5% CO2 air incubator at 37 °C. The LLC was implanted intramuscularly (im) as a 2 × 10^6 cell inoculum into the right hind leg of 8-week old male and female C57BL mice (24 ± 3 g body weight). […] At day 15, animals were sacrificed, the legs were amputated at the proximal end of the femur, and the inhibition of tumor growth was determined according to the difference in weight of the tumor-bearing leg, and the healthy leg of the animals expressed as a percentage referred to the control animals. Body weight was measured every two days and was taken as a parameter for systemic toxicity. All the values are the means ± SD of not less than three measurements.

For data set [2], the system named is DNA methylation in HCT-116 cells. Briefly: DNA methylation analysis (Imprint methylated DNA quantification kit). Particulars: HCT-116, 1 µM. Format: cell-based, human. The protocol:
Human colon adenocarcinoma cells HCT-116 were chosen as the model cellular system suitable for DNA methylation analysis because: (i) this human colorectal cancer cell line has been used as a prototypic model for analyses of the genetic basis of cancer, and the role of epigenetic changes in tumorigenesis; (ii) they have a propensity to both global DNA hypomethylation and to silence genes through promoter focal hypermethylation, [21]. HCT-116 cells were treated with the compounds at the concentrations indicated in Fig. 4A for 24 or 72 h and DNA was isolated for the complete methylation analysis as described in the experimental section. Decitabine (5-aza-2′-deoxycytidine), a hypomethylating agent which hypomethylates DNA by inhibiting DNMT, was used in these experiments as a […]. The IC50 values found for this agent in HCT-116 cells (the drug-treatment period was 72 h) was (7.5 ± 0.3) µM (Table 1).
Figure 4 Analysis of DNA methylation. (A) DNA was isolated from HCT-116 cells after the exposure to the agents at the concentrations indicated in the graph for 24 or 72 h. The levels of DNA methylation in the control was taken as 100%. The bars represent mean values from three independent experiments each performed in octuplicate. The error bars are the SDs. (B) DNMT activity in colon carcinoma cells HCT-116 treated for 24 h with the compounds tested in the present work. The DNMT activity in the control, untreated cells was taken as 100%. Error bars are the SDs and the stars at the top of bars denote a significant difference from the control with (*p < 0.05; **p < […]), calculated using […] student’s t-test. The bars represent mean values from three independent experiments, each performed in quadruplicate.
Human colon carcinoma cells (HCT-116) were seeded at the density 1.5 × 10^6 cells/dish. […] The DNA content in each sample was determined by UV spectrophotometry. DNA (200 ng) from the samples was loaded to the Imprint methylated DNA quantification kit (Sigma-Aldrich, USA). The level of methylated DNA was proportional to the absorbance measured at 450 nm.

The subject of data set [3] is HCT-116 human colorectal carcinoma cells. The data set can be described thus: MTT cytotoxicity, 72 h. The class given is cell-based. Particulars: MTT, 72 h, platinum complexes and decitabine. The protocol: (§1) Cytotoxic activity of the compounds tested in the present work was screened on the panel of malignant and nonmalignant cell lines using the colorimetric MTT assay and 72 h of drug incubation period.
(§2) Cell death was evaluated using a system based on the tetrazolium compound MTT [3-(4,5-dimethyl-2-thiazolyl)-2,5-diphenyl-2H-tetrazolium bromide]. The cells were seeded in 96-well tissue culture plates at a density of 10^4 A2780cisR, LNCaP, HSF cells/well, 3 × 10^3 CHO-K1 or 4 × 10^3 MCF7, HCT-116 and MRC5 pd30 cells/well in 100 μL of medium. After overnight incubation (16 h), the cells were treated with the compounds in a final volume of 200 μL/well. After additional 72 h, 10 μL of a freshly diluted MTT solution (2.5 mg mL^−1) was added to each well, and the plate was incubated at 37 °C in a humidified 5% CO2 atmosphere for 4 h. At the end of the incubation period, the medium was removed, and the formazan product was dissolved in 100 μL of DMSO. The cell viability was evaluated by measurement of the absorbance at 570 nm, using an Absorbance Reader SUNRISE TECAN SCHOELLER. IC50 values were calculated from curves constructed by plotting cell survival (%) versus drug concentration (μM). All experiments were made in triplicate. The reading values were converted to the percentage of control (% cell survival). Cytotoxic effects were expressed as IC50.

The test system of data set [4] is HCT-116 cells. Briefly: Cellular platinum accumulation/distribution by ICP-MS. The class given is cell-based, human. The settings on record: HCT-116, 24 h, 0.35 µM.
For the next data set, the system named is DNA from HCT-116 cells. The data set can be described thus: Platinum content on DNA isolated from treated cells (ICP-MS). The class given is cell-based, human. The settings on record: HCT-116, 24 h, 0.35 µM. The protocol: (§3) As for antitumor cisplatin and its direct derivatives, DNA is believed to be the target also for Pt(IV) prodrugs examined in the present work.
(§4) The cells were seeded in 150 cm^2 culture flasks at a density 1 × 10^7 cells/flask (67 000 cells/cm^2). After 48-h incubation, the cells were treated with the compounds (0.35 μM) for 24 h. The attached cells were washed twice with PBS (4 °C). As mentioned in the preceding paragraph, 75% of cells were used for analysis of platinum bound to DNA, remaining 25% were used for estimations of cellular accumulation of platinum. Cells were then lysed in DNAzol (DNAzol® genomic DNA isolation reagent, MRC) supplemented with RNase A (100 μg mL^−1). The genomic DNA was precipitated from the lysate with ethanol, dried and resuspended in water. The DNA content in each sample was determined by UV spectrophotometry. The DNA samples were digested in the presence of hydrochloric acid (11 M) using high-pressure microwave mineralization system (MARS5, CEM). The platinum content was determined by ICP-MS. Experiments were performed in triplicate and the values are the means ± SD.

The test system of a further data set is DNA from A2780 cells. The data set is described as above. The class given is cell-based, human. The settings on record: A2780, 24 h, 0.35 µM. The protocol:
as §3, §4

Data set [5] deals with MRC-5 (PD30) human fetal lung fibroblasts. The data set can be described thus: MTT cytotoxicity, 72 h. Format: cell-based. Particulars: platinum complexes. Here is the method:
as §1, §2

Data set [6] deals with LNCaP human prostate adenocarcinoma cells. The data set can be described thus: MTT cytotoxicity, 72 h. Format: cell-based. Particulars: platinum complexes. The protocol: as §1, §2
Data set [7] has as its system HSF human primary skin fibroblasts. Briefly: MTT cytotoxicity, 72 h. Format: cell-based. Particulars: platinum complexes. The protocol: as §1, §2
For data set [8], the system named is A2780cisR human ovarian carcinoma cells. The data set can be described thus: MTT cytotoxicity, 72 h. Format: cell-based. Here is the method: as §1, §2
Data set [9] relates to CHO-K1 Chinese hamster ovary cells. Briefly: MTT cytotoxicity, 72 h. The settings on record: platinum complexes. The class given is cell-based. The protocol: as §1, §2
The subject of data set [10] is MCF-7 human breast cancer cells. The data set can be described thus: MTT cytotoxicity, 72 h. Particulars: platinum complexes. Format: cell-based. The protocol: as §1, §2
In data set [11] the test system is A2780 human ovarian carcinoma cells. Briefly: MTT cytotoxicity, 72 h. Format: cell-based. The settings on record: MTT, 72 h, platinum complexes.
In another data set the test system is A2780 cells. The data set can be described thus: Cellular platinum accumulation/distribution by ICP-MS. Format: cell-based, human. Particulars: 0.35 µM. Here is the method:
(§5) Cellular concentrations of platinum were determined by inductively coupled plasma mass spectrometry (ICP-MS) after 24 h of exposure to the complexes at the concentration of 0.35 µM.
(§6) Cellular uptake studies were also carried out to measure the accumulation of platinum species in cytosol and nucleus. […] The platinum levels in each pool were measured by ICP-MS. The extent of accumulation of both OA conjugated Pt(IV) prodrugs into the cytosol and nucleus fractions was markedly higher than that of cisplatin or Pt(IV)diAc.
(§7) The cells were seeded in 150 cm^2 culture flasks at a density 1 × 10^7 cells/flask (67 000 cells/cm^2). After 48-h incubation, the cells were treated with the compounds (0.35 μM) for 24 h. The attached cells were washed twice with PBS (4 °C). Seventy-five percent of cells were used for analysis of platinum bound to DNA, remaining 25% were used for estimations of cellular accumulation of platinum. Cell pellets were digested by a high-pressure microwave digestion system (MARS5, CEM) with HCl to give a fully homogenized solution, and final platinum content was determined by ICP-MS. The analysis with the aid of ICP-MS was performed using Agilent 7500 (Agilent, Japan) or Thermo Optek X Series.
(§8) A2780 cells were seeded in 100 mm tissue culture dishes (3 × 10^6 cells) and grown for 48 h to 80–90% confluence. Cells were harvested after 24 h of treatment. Concretely, the dishes were washed two times with ice-cold PBS and the cells scraped into tubes and centrifuged for 10 min at 0 °C (200 g). The pellets were resuspended in the lysis buffer [Tris·HCl (10 mM, pH 8.0), KCl (60 mM), EDTA (1.2 mM), DTT (1 mM), phenylmethanesulfonyl fluoride (PMSF, 0.1 mM), NP-40 (0.04%)] for 10 min on ice and centrifuged for 4 min at 0 °C (800 g). Cytosolic fraction was separated for platinum ICP-MS analysis, and protein concentration was determined by Bradford assay. The pellets were rinsed with the above lysis buffer without PMSF and NP-40 and centrifuged for another 4 min at 0 °C (300 g). The pellets were resuspended in 50 µL nuclear extraction buffer [Tris·HCl (20 mM, pH 8.0), NaCl (420 mM), MgCl2 (0.7 mM), EDTA (0.25 mM), glycerol (25%)] and incubated for 30 min at 4 °C, continuously mixed on end-over-end roller, and then centrifuged for 15 min at 0 °C (13000 g). Protein concentration in nuclear extracts was determined by the Bradford assay, and stored at −80 °C until analysis.

Data set [12] relates to HCT-116 cells. The description is as above. The class given is cell-based, human. Particulars: HCT-116, 24 h exposure, 0.35 µM. The protocol: as §5, §6, §7, §8
In a further data set the test system is PNT1a. The data set can be described thus: MTT cytotoxicity, 72 h. The class given is cell-based. The settings on record: platinum complexes.
Details of data set [13]: method as in PMID 25888926. The settings on record: valproato complexes; cited from earlier work.
The mark [14] stands for this setting: rough estimate from Tables 2 and 3.

SMILES strings stand for the structures.

Consider `CCCCCC(=O)[O][Pt]([NH2])([NH2])([Cl])([Cl])[O]C(=O)CCCCC` [Pt(IV)diHA, cis, cis, trans-[Pt(IV)(NH3)2Cl2(HA)2]], for which, in data set [1], the “Average tumor weight (mean ± SD)” value turned out to be 0.088 ± 0.06 g and the “Inhibition of tumor growth” value was 84%.
Regarding `Nc1ncn([C@H]2C[C@H](O)[C@@H](CO)O2)c(=O)n1` [Decitabine, 5-aza-2′-deoxycytidine, reference compound], the “Change of DNA methylation” value in data set [2] is recorded as “considerably lowered level of DNA methylation”. In addition, the IC50 in data set [3] (Homo sapiens, HCT-116) amounted to 7500 ± 300 nM.
Turning to `CCCCCCCC(=O)[O][Pt]([NH2])([NH2])([Cl])([Cl])[O]C(C)=O` [Pt(IV)AcOA, cis, cis, trans-[Pt(IV)(NH3)2Cl2AcOA]], the Platinum in cytosol in the data set on HCT-116 cells [4] was determined as 48 ± 2 pg Pt/µg protein; with A2780 cells (A2780, 24 h), 28 ± 4 pg Pt/µg protein. Moreover, the Platinum in nucleus in the data set on HCT-116 cells [4] was 55 ± 7 pg Pt/µg protein; with A2780 cells (A2780, 24 h) it was 27 ± 4 pg Pt/µg protein. Further, the “Platinum content on DNA” value in the data set on DNA from HCT-116 cells came out at 19.8 ± 3.6 pg Pt/µg DNA; in the data set with DNA from A2780 cells, 8.0 ± 1.4 pg Pt/µg DNA. Further, the “Platinum on DNA, % from the total intracellular Pt amount” value in the data set on DNA from HCT-116 cells (setting [14]) is 4.8%; in the data set on DNA from A2780 cells (setting [14]), 5.0%. For the same compound, the IC50 in [5] turned out to be 409 ± 215 nM; in data set [3], 930 ± 20 nM; in data set [6], 270 ± 100 nM; in [7], 957 ± 19 nM; in data set [8] (MTT, 72 h, platinum complexes), 370 ± 60 nM; in data set [9], 1100 ± 200 nM. Also, the IC50 in data set [10] was 500 ± 40 nM; in [11], 350 ± 50 nM; in the data set with PNT1a, 150 ± 3 nM. Also, the “RF, resistance factor” value in [8] (IC50 (resistant, A2780cisR)/IC50 (sensitive, A2780)) is given as 1.1. In addition, the “Total cellular platinum accumulation” value in the data set on A2780 cells (A2780, 24 h exposure) turned out to be 4.0 ± 0.9 ng Pt/10^6 cells; in the data set with HCT-116 cells [12] it was 6.0 ± 0.9 ng Pt/10^6 cells.
Turning to `CCCC(=O)[O][Pt]([NH2])([NH2])([Cl])([Cl])[O]C(=O)CCC` [Pt(IV)diBA, cis, cis, trans-[Pt(IV)(NH3)2Cl2(BA)2]], in data set [1], the “Average tumor weight (mean ± SD)” value was determined as 0.109 ± 0.05 g and the “Inhibition of tumor growth” value worked out at 80%.
With `CCCC(CCC)C(=O)[O][Pt]([NH2])([NH2])([Cl])([Cl])[O]C(C)=O` [Pt(IV)AcVPA, reference compound], the logP in data set [13] is 0.17.

As a reminder, the IC50 is the concentration that gives 50% inhibition. For orientation: logP means a log measure of how a compound divides between an organic and an aqueous phase.
